Measurements as given in patent US7993884B2, “Beta-xylosidase for conversion of plant cell wall carbohydrates to simple sugars” (The United States of America as represented by the …, priority 2006, dated 2011).
Values joined by “and” are separate entries in the source; they are usually repeats but may differ in a detail not shown here. Identical values can stand only once. Like-named read-outs stand apart in the source and are kept apart here.

Assays:
SXA [1] = target: T1, SXA (Selenomonas ruminantium, UniProt O52575); test: biochemical
Excerpt: (§1) Concentrations of D-xylose produced versus time were fitted to lines for determination of initial rates. For determination of steady-state kinetic parameters, initial rates were fitted to Eq. 2 (competitive inhibition).

[2] = target: T2, Selenomonas ruminantium GA192 β-D-xylosidase (SXA), wild type, SEQ ID NO: 2 (Pseudoselenomonas ruminantium, UniProt O52575); test: Steady-state kinetics of SXA with X2-X6, improved quenching, HPLC (Example 3); settings: for factor by which kcat is higher than that of the Bacillus pumilus enzyme: SXA pH 5.3 vs B. pumilus pH 7.15, 25° C
Description: (§2) Samples (25 μL) were injected onto the column equilibrated with 0.1 M NaOH and developed with a 5-min linear gradient (0.1 M NaOH to 33 mM sodium acetate) at ˜25° C. and a flow rate of 1 mL min^−1.
(§3) Samples were kept on wet ice or the HPLC autosampler at 5° C. until analyzed by HPLC. Initial rates, calculated from linear regressions of the [D-xylose] produced versus time, were fitted to Eq. 1 to determine steady-state kinetic parameters.

SXA [3] = target: T1, SXA; test: SXA-catalyzed hydrolysis of 4NP-glycoside substrates, initial rates (Methods A and B); type: biochemical;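 further: initial rates from 4-nitrophenol release, tracked by absorbance over roughly 0.3 min and converted using product-minus-substrate extinction differences, in 1 mL mixtures started by enzyme addition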
Description: (§4) Two methods were employed for determining initial rates. […] Initial rates were calculated from fitting the absorbance readings versus time to a line (minimum of 4 points per reaction progression) and by using an extinction coefficient of 17.4 mM^−1 cm^−1. In Method B (continuous monitoring), temperature-equilibrated reactions (1 mL) were monitored at 380 nm (for pH values below 6) or 400 nm (for pH values of 6 and above). Reactions were generally monitored 0.3 min for initial rate determinations. Delta extinction coefficients (product-substrate) used for molar conversion were determined by subtracting the absorbance of substrate (at pH 5 so even very minor contaminating 4NP would not contribute) from the absorbance of 4NP for each reaction condition. […] The concentration of 4NP substrates was determined by incubating the substrate with excess enzyme until an end point was reached, adding an aliquot (0.01 to 0.1 mL) to 0.1 M NaOH, recording the absorbance at 400 nm and using the extinction coefficient of 18.3 cm^−1mM^−1. Unless indicated otherwise, for both Methods A and B, reactions were initiated by adding a small aliquot of enzyme (generally 7 μl of enzyme diluted into 10 mM sodium phosphate, pH 7.0, and incubated on wet ice or at ˜25° C.) to the 1-mL, temperature-equilibrated (25° C.) reaction mixtures. For pH studies, buffers of constant ionic strength (I=0.3 M), adjusted with NaCl, were used as indicated: 100 mM succinate-NaOH (pH 4.3-6), 100 mM sodium phosphate (pH 6-8), 30 mM sodium pyrophosphate (pH 8-9), glycine-NaOH (pH 9) and glycylglycine-NaOH (pH 9).

SXA [4] = target: T1, SXA; settings: for relative kcat values: pH 5.3 and 25° C., relative to A2
Description: Samples (25 μL) were injected onto the column equilibrated with 0.1 M NaOH and developed with a 15-min linear gradient (0.1 M NaOH to 15 mM sodium acetate) at ˜25° C. and a flow rate of 1 mL min^−1.
Before (time=0 min) and after (time=1-6 min) initiating reactions with enzyme (7 μL), samples (0.05-0.1 mL) were removed and quenched with an equal volume of 0.5 M acetic acid and frozen. Following lyophilization, samples were dissolved in H2O and analyzed by HPLC. […] Results from two replicate reactions were combined to provide data points for the progress curves.
Before and after addition of enzyme (7 μL), 25-μl aliquots of the reaction mixtures were directly injected onto the HPLC column for quantification of product L-arabinose.

[5] = target: Selenomonas ruminantium GA192 β-D-xylosidase (SXA, parent SEQ ID NO: 2) variant H248A (Pseudoselenomonas ruminantium, UniProt O52575, H248A); test: Steady-state kinetics of SXA mutant H248A with 4NPX
Description: (§5) Site-directed mutagenesis was performed using the QuikChange site-directed mutagenesis kit (Stratagene) according the manufacturer's instructions. […] Complete sequences were determined on a 3700 sequencer (Applied Biosystems) using T7 promoter and specific primers to confirm that only the intended mutations had been introduced. Lasergene software (DNAStar) was used to analyze the sequence data. pSRA1 and its mutated plasmids were used for the transformation of E. coli BL21(DE3). Transformants were inoculated to 50 mL Luria-Bertani (LB) broth supplemented with 50 mg ampicillin/mL and the flask was shaken overnight at 250 rpm and 37° C. Twenty mL of the overnight culture were transferred to a 2.8-liter baffled flask containing 1.0 liter SOB medium [2.0% tryptone, 0.5% yeast extract, 0.05% NaCl, 0.0186% KCl (all in wt/vol) and 10 mM MgSO4] supplemented with 50 mg ampicillin/mL. The culture was shaken at 250 rpm and 37° C. […] Cells were harvested by centrifugation and cell pellets were stored at −80° C. until use.
(§6) Initial purification steps and diafiltration steps were performed at 4° C. Chromatography was at room temperature (˜24° C.). Cells were thawed, suspended in 40 mL of 50 mM Tris-HCl, pH 7.5 (Buffer A) containing Complete protease inhibitor cocktail (Roche) and disrupted by sonication. […] The column was washed until absorbance at 280 nm of the eluate became minimal (˜200 mL) and developed with a 500-mL linear gradient (Buffer A+30% saturated ammonium sulfate to Buffer A).
(§7) Two methods were employed for determining initial rates. […] Initial rates were calculated from fitting the absorbance readings versus time to a line (minimum of 4 points per reaction progression) and by using an extinction coefficient of 17.4 mM^−1 cm^−1. […] The concentration of 4NP substrates was determined by incubating the substrate with excess enzyme until an end point was reached, adding an aliquot (0.01 to 0.1 mL) to 0.1 M NaOH, recording the absorbance at 400 nm and using the extinction coefficient of 18.3 cm^−1mM^−1. […]

[6] = target: Selenomonas ruminantium GA192 β-D-xylosidase (SXA, parent SEQ ID NO: 2) variant R290A (Pseudoselenomonas ruminantium, UniProt O52575, R290A); test: Steady-state kinetics of SXA mutant R290A with 4NPX
Description: as §5
(§8) Initial purification steps and diafiltration steps were performed at 4° C. Chromatography was at room temperature (˜24° C.). Cells were thawed, suspended in 40 mL of 50 mM Tris-HCl, pH 7.5 (Buffer A) containing Complete protease inhibitor cocktail (Roche) and disrupted by sonication. Following centrifugation, the supernatant was brought to 30% saturation with respect to ammonium sulfate and centrifuged. […] The column was washed until absorbance at 280 nm of the eluate became minimal (˜200 mL) and developed with a 500-mL linear gradient (Buffer A+30% saturated ammonium sulfate to Buffer A).
(§9) Two methods were employed for determining initial rates. […] Initial rates were calculated from fitting the absorbance readings versus time to a line (minimum of 4 points per reaction progression) and by using an extinction coefficient of 17.4 mM^−1 cm^−1. […] The concentration of 4NP substrates was determined by incubating the substrate with excess enzyme until an end point was reached, adding an aliquot (0.01 to 0.1 mL) to 0.1 M NaOH, recording the absorbance at 400 nm and using the extinction coefficient of 18.3 cm^−1mM^−1. Unless indicated otherwise, for both Methods A and B, reactions were initiated by adding a small aliquot of enzyme (generally 7 μl of enzyme diluted into 10 mM sodium phosphate, pH 7.0, and incubated on wet ice or at ˜25° C.) to the 1-mL, temperature-equilibrated (25° C.) reaction mixtures. For pH studies, buffers of constant ionic strength (I=0.3 M), adjusted with NaCl, were used as indicated: 100 mM succinate-NaOH (pH 4.3-6), 100 mM sodium phosphate (pH 6-8), 30 mM sodium pyrophosphate (pH 8-9), glycine-NaOH (pH 9) and glycylglycine-NaOH (pH 9).

[7] = target: Selenomonas ruminantium GA192 β-D-xylosidase (SXA, parent SEQ ID NO: 2) variant E186A (Pseudoselenomonas ruminantium, UniProt O52575, E186A); test: Steady-state kinetics of SXA mutant E186A with 4NP substrates
Description: as §5, §8, §9

[8] = target: T2, Selenomonas ruminantium GA192 β-D-xylosidase (SXA), wild type, SEQ ID NO: 2; test: Steady-state kinetics of SXA with 4NPX2, A2 and X2-X6 by HPLC (Example 1); settings: for relative kcat value: A2 = 1
[9] = target: Selenomonas ruminantium GA192 β-D-xylosidase (SXA, parent SEQ ID NO: 2) variant D127A (Pseudoselenomonas ruminantium, UniProt O52575, D127A); test: Steady-state kinetics of SXA mutant D127A with 4NPX
Description: as §5, §6, §7

[10] = target: Selenomonas ruminantium GA192 β-D-xylosidase (SXA, parent SEQ ID NO: 2) variant D14A (Pseudoselenomonas ruminantium, UniProt O52575, D14A); test: Steady-state kinetics of SXA mutant D14A with 4NP substrates
Description: as §5, §8, §9

[11] = target: T2, Selenomonas ruminantium GA192 β-D-xylosidase (SXA), wild type, SEQ ID NO: 2; test: Steady-state kinetics of SXA with 4NP-glycosides (Example 1, Methods A and B)
Description: Kinetics with 4NP Substrates
as §4

SXA [12] = target: T1, SXA; settings: read-out: Km^4NPX; pH 5.3, 25° C., HPLC of D-xylose
Excerpt: as §1

SXA [13] = target: T1, SXA; test: biochemical; settings: read-out: Km^4NPX; 100 mM succinate-NaOH, pH 5.3, 25° C.
SXA [14] = target: T1, SXA
Description: as §2, §3

[15] = target: T3, enzyme from Bacillus pumilus (Bacillus pumilus, UniProt P07129); settings: pH 7, 25° C.; cited from earlier work
T3 sequence (P07129 1-535): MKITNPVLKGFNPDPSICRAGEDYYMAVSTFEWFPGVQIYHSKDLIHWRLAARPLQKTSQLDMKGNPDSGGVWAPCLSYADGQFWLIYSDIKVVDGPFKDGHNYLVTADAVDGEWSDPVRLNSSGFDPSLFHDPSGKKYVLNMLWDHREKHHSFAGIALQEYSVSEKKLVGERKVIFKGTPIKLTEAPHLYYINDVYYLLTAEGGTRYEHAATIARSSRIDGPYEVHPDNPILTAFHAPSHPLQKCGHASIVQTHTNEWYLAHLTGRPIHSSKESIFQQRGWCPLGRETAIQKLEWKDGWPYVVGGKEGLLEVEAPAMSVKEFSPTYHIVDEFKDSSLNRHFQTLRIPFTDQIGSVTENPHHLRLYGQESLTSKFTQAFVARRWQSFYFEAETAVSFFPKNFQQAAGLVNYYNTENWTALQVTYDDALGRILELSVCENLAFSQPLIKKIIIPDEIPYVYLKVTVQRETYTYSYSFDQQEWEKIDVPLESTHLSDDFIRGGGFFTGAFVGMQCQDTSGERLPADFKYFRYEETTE

[16] = test system: Bacillus pumilus β-xylosidase; settings: pH 7, 25° C.; cited from earlier work
[17] = Exper. 1: succinate pH 5.3, Method A, η/ηo 1.00
[18] = Exper. 1: succinate pH 5.3, Method A, η/ηo 6.12 (50% sucrose)
[19] = Exper. 2: MES pH 6.00, Method B, η/ηo 1.00
[20] = Exper. 2: MES pH 6.00, Method B, η/ηo 6.85 (50% sucrose)
[21] = I=0.3 M, 25° C., Eq. 7 (4NPX), Eq. 5 (4NPA)
[22] = 100 mM succinate-NaOH, pH 5.3, 25° C, Method A
[23] = same reaction conditions, pH 5.3, 25° C.
[24] = 100 mM succinate-NaOH, pH 5.3, 25° C

O=[N+]([O-])c1ccc(O)cc1 [4NP, 4-nitrophenol]
Ki (SXA [1]): 6.28 ± 0.55 mM

O=[N+]([O-])c1ccc(O[C@@H]2OC[C@@H](O)[C@H](O)[C@H]2O)cc1 [4NPX, 4-nitrophenyl-β-D-xylopyranoside]
factor by which kcat is higher than that of the Bacillus pumilus enzyme [2]: 4
pH-independent kcat (SXA [3]): 32.7±0.5 s^−1
pH-independent kcat/Km (SXA [3]): 58.7±1.3 s^−1 mM^−1
Relative Rate (SXA [3]; 5 mM 4NP glycoside, 100 mM succinate-NaOH, pH 5.3, 25° C., Method A, initial rate relative to 4NPX): 1.00 ± 0.01
Km (SXA [3]; 100 mM sodium phosphate, pH 7.0, 25° C., Method B): 443 ± 8 µM
pH-independent 1/Km (SXA [3]; 1/Km versus pH, Eq. 4 (4NPX), Eq. 5 (4NPA)): 2.65±0.081 mM^−1
pKa of 1/Km versus pH (single protonatable group) (SXA [3]; Eq. 4): 5.6 and 5.56±0.08
Km (SXA [3]; [17]): 742 ± 41 µM
kcat Rel. to η/ηo = 1 (SXA [3]; [17]): 1.00
Km (SXA [3]; [18]): 690 ± 35 µM
kcat Rel. to η/ηo = 1 (SXA [3]; [18]): 0.910 ± 0.0152
Km (SXA [3]; [19]): 699 ± 35 µM
kcat Rel. to η/ηo = 1 (SXA [3]; [19]): 1.00
Km (SXA [3]; [20]): 637 ± 81 µM
kcat Rel. to η/ηo = 1 (SXA [3]; [20]): 0.920 ± 0.040
pKa1 of kcat versus pH (SXA [3]; I=0.3 M, 25° C., Eq. 5): 3.5 and ~3.6 and 3.54±0.10
pKa1 of kcat/Km versus pH (SXA [3]; I=0.3 M, 25° C., Eq. 5): ~5.0 and 5.00±0.04
pKa2 of kcat versus pH (SXA [3]; I=0.3 M, 25° C., Eq. 5): 6.9 and 6.90±0.03
pKa2 of kcat/Km versus pH (SXA [3]; I=0.3 M, 25° C., Eq. 5): 7.23±0.04
pKa1 of 1/Km versus pH (SXA [3]; [21]): 4.8 and 4.81±0.21
pKa2 of 1/Km versus pH (SXA [3]; [21]): 6.4 and 6.39±0.26
higher affinity of dianionic SXA (D14^−E186^−) than monoanionic SXA (D14^−E186^H) (SXA [3]; from pH dependency of 1/Km): ~2 fold and 1.9 fold
factor by which kcat of SXA is higher than that of the B. pumilus enzyme (SXA [3]; substrate 4NPX, SXA pH 5.3, 25° C. (Example 1) vs B. pumilus pH 7.15, 25° C.): 4
relative kcat values (SXA [4]): 340
kcat [5, 22]: 0.0950 ± 0.0025 s⁻¹
factor by which kcat is degraded vs wild type ([5]; pH 5.3, 25° C.): 330
kcat ([6]; 100 mM succinate-NaOH, pH 5.3, 25° C, Method A, not well determined (highest 4NPX 5 mM)): 0.0126 ± 0.0020 s⁻¹
factor by which kcat is degraded vs wild type ([6]; pH 5.3, 25° C.): 2500
increase of Km(4NPX) vs wild type ([6]; pH 5.3, 25° C.): 70 fold
kcat [7, 22]: 0.00267 ± 0.00005 s⁻¹
factor by which kcat is degraded vs wild type ([7]; pH 5.3, 25° C.): 12000
relative kcat value ([8]; pH 5.3, 25° C): 340
kcat [9, 22]: 0.000129 ± 0.000003 s⁻¹
factor by which kcat is degraded vs wild type ([9]; pH 5.3, 25° C.): 24000
kcat [10, 22]: 0.00954 ± 0.00016 s⁻¹
factor by which kcat is degraded vs wild type ([10]; pH 5.3, 25° C.): 3300
kcat ([11]; 100 mM MES-NaOH, pH 6.00, 25° C, Method B, 50% sucrose, η/ηo 6.85): 30.1 ± 1.1 s⁻¹
kcat ([11]; 100 mM MES-NaOH, pH 6.00, 25° C, Method B, η/ηo 1.00): 32.9 ± 0.5 s⁻¹
kcat ([11]; 100 mM succinate-NaOH, pH 5.3, 25° C, Method A, no sucrose): 32.8 ± 0.6 s⁻¹ and 31.1 ± 0.4 s⁻¹
affinity of dianionic SXA (D14^−E186^−), higher than that of monoanionic SXA (D14^−E186^H) ([11]; from pH dependence of 1/Km): ~2 fold and 1.9 fold
kcat ([11]; pH 5.3, 25° C, Method A, 50% sucrose, η/ηo 6.12): 29.8 ± 0.5 s⁻¹
kcat Rel. to η/ηo = 1 ([11]; pH 5.3, η/ηo 6.12): 0.910 ± 0.0152
kcat Rel. to η/ηo = 1 ([11]; pH 6.00, η/ηo 6.85): 0.920 ± 0.040
pH-independent kcat ([11]; pH profile, I=0.3 M, Method B): 32.7±0.5 s^−1
Km (SXA [12]): 758 ± 59 µM
Km (SXA [13]): 716 ± 32 µM

OC1OC[C@@H](O[C@@H]2OC[C@@H](O)[C@H](O)[C@H]2O)[C@H](O)[C@H]1O (stereo partly drawn) [X2, 1,4-β-D-Xylobiose]
Km (SXA [4]; 100 mM succinate-NaOH, pH 5.3, 25° C. (Example 1)): 4200 µM
dissociation constant for the transition state (SXA [4]; assuming noncatalyzed rate similar to a-methylglucopyranoside): ~10^−19
time of peak height of intermediate product, observed (SXA [4]; hydrolysis of X4, pH 5.30, 25° C.): 2940 s
time of peak height of intermediate product, observed (SXA [4]; hydrolysis of X6, pH 5.30, 25° C.): 13384 s
relative kcat values (SXA [4]): 5600
kcat, fold larger than with 4NPX (SXA [4]; [23]): 12 fold and 13 fold
kcat/Km, fold larger than with 4NPX (SXA [4]; [23]): 2 fold
pH-independent kcat (SXA [14]): 172±2
Km (SXA [14]; 100 mM succinate-NaOH, pH 5.3, 25° C., improved quench (Example 3)): 2060 ± 80 µM
pKa of kcat versus pH (single group) (SXA [14]; Eq. 5, I=0.3 M, 25° C.): 7.57±0.03
pKa1 of kcat/Km versus pH (SXA [14]; Eq. 6, I=0.3 M, 25° C.): 4.86±0.06
pKa2 of kcat/Km versus pH (SXA [14]; Eq. 6, I=0.3 M, 25° C.): 7.01±0.05
pKa1 of 1/Km versus pH (SXA [14]; Eq. 7, I=0.3 M, 25° C.): 4.78±0.11
pKa2 of 1/Km versus pH (SXA [14]; Eq. 7, I=0.3 M, 25° C.): 7.03±0.17
factor by which kcat of SXA is higher than that of the Bacillus pumilus enzyme (SXA [14]; SXA pH 5.3, 25° C. vs B. pumilus pH 7.15, 25° C.): 10
lower affinity of dianionic SXA (D14^−E186^−) than monoanionic SXA (D14^−E186^H) (SXA [14]; from pH dependencies of 1/Km): 2.9 fold and 3 fold
pH-independent kcat/Km (SXA [14]; kcat/Km versus pH, Eq. 6, I=0.3 M, 25° C. (FIG. 19)): 123±5
kcat lower than previous determination (Example 1) (SXA [14]; pH 5.3, 25° C.): 55%
kcat/Km lower than previous determination (Example 1) (SXA [14]; pH 5.3, 25° C.): 9%
kcat, Bacillus pumilus enzyme [15]: 18 s⁻¹

OC1OC[C@@H](O[C@@H]2OC[C@@H](O)[C@H](O)[C@H]2O)[C@H](O)[C@H]1O (stereo partly drawn) [X2, 1,4-β-D-xylobiose]
kcat [2, 24]: 185 ± 3 s⁻¹
factor by which kcat is higher than that of the Bacillus pumilus enzyme [2]: 10
affinity of dianionic SXA (D14^−E186^−), lower than that of monoanionic SXA (D14^−E186^H) ([2]; from pH dependence of 1/Km): 2.9 fold and 3 fold
kcat ([2]; pH 5.3, 25° C (improved technique), approximate): approximately 185 sec^−1
pH-independent kcat ([2]; pH profile, I=0.3 M, 25° C): 172±2
kcat [8, 24]: 412 s⁻¹ and 412 ± 18 s⁻¹
kcat ([8]; pH 5.3, 25° C (Example 1), approximate): approximately 410 sec^−1
relative kcat value ([8]; pH 5.3, 25° C): 5600
kcat relative to that of substrates X3-X6 ([8]; pH 5.3, 25° C.): 2-4 fold
kcat ratio X2 vs 4NPX [8, 23]: 12 fold and 13 fold
kcat [16]: 18 s⁻¹
